Test results from patent US20150056702A1, “METHOD AND KIT FOR CULTURING STEM CELLS” (China Medical University, priority 2013, published 2015).

Experiments:
Assay type in all cases: cell-based, mouse
ES cells = test: Alkaline phosphatase staining of ES cells
Procedure: The following steps were conducted in order to culture ES cells: • (1) preparing a stem cell medium: DMEM+15% heat-inactivated FBS+NEAA (0.1 mM)+L-glutamine (2 mM)+β-mercaptoethanol (0.2 mM); • (2) preparing a BP-containing solution: dissolving BP into DMSO to form a BP-containing solution (100 mg/ml), and storing the solution at −20° C.; • (3) adding different amounts of the BP-containing solution in step (2) into the stem cell medium in step (1) to form different BP-containing mediums, wherein the amount of BP were about 5, 10, 20 or 40 μg per milliliter of the stem cell medium respectively (i.e. the experimental group mediums: BP5, BP10, BP20 and BP40); and • (4) using the BP-containing medium of in step (3) to culture a ES cell (retrieved from the embryos in the blastula stage of 129sv/J mice) at 37° C., 5% CO2 and 95% humidity on the feeder cells provided by Example 1.
The following procedure was conducted in proper order to culture the ES cells: • (1) preparing a stem cell medium: • LIF-containing medium (without BP): DMEM+15% heat-inactivated FBS+NEAA (0.1 mM)+L-glutamine (2 mM)+(3-mercaptoethanol (0.2 mM)+LIF (4 ng/ml); and • control medium (without BP): DMEM+15% heat-inactivated FBS+NEAA (0.1 mM)+L-glutamine (2 mM)+β-mercaptoethanol (0.2 mM); • (2) using the medium in step (1) to culture a ES cell (retrieved from embryos in the blastula stage of 129sv/J mice) at 37° C., 5% CO2 and 95% humidity on the feeder cells provided by Example 1.
Alkaline phosphatase is a marker protein of stem cells. The activity measured by staining could be used to determine if BP can effectively maintain the self-renewal and/or pluripotency of stem cells.
An experimental group medium (BP5, BP10, BP20 or BP40), a LIF-containing medium (without BP) and a control group medium (without BP) were used respectively to culture ES cells in a 6-well culture dish with an initial density of 1×10^4 per well for 72 hours. The medium was removed and the cells were washed two times with PBS. Next, PBS was removed, and 1 ml of 80% ethanol was added into each well to perform the fixation at 4° C. for 2 to 24 hours. Next, ethanol was removed, and then the cells were washed one time with distilled water. The distilled water was added again to soak the cells for 2 to 3 minutes, and then be removed. Next, the cells were soaked with a Tris-HCl buffer (100 mM, pH 8.2 to 8.5) at room temperature for 5 minutes, and then, the buffer was removed. Next, a Leukocyte Alkaline Phosphatase kit (Vector) was used to perform the staining for 20 to 30 minutes, and then the Alkaline Phosphatase Substrate working solution was removed, the cells were soaked and washed by Tris-HCl buffer (100 mM, pH 8.2 to 8.5) and then be observed by a fluorescent microscope to count the number of the AP-positive clones. The undifferentiated ES cells with a higher activity show a red color, while the differentiated ES cells with a lower activity show a weak red color or are even colorless.

EGF = test: Real-time PCR, cytokine gene EGF in ES cells; details: for EGF mRNA expression level: ES cells, control group = 100%
Procedure: (§1) An experimental group medium (BP5, BP10, BP20 or BP40) and a control group medium (without BP) were added respectively to perform the following steps. ES cells were cultured with an initial density of 1×10^4 per well in a 6-well culture dish. The medium was removed until the cells growth to be about 70 to 80% confluence, and then 1 ml TRIzol (Invitrogen) was added into each well. The cells were incubated for 5 minutes, and then was scraped by a spatula and placed into a 1.5 ml microtube to be lysed adequately. Chloroform (0.2 ml) was added into the microtubes. The mixture was shaken up and down for 15 seconds, and then incubated at room temperature for 2 to 3 minutes. Thereafter, the mixture was centrifuged at 12000 rpm at 4° C. for 15 minutes, and the supernatant was removed into another 1.5 ml microtube and isopropanol (0.5 ml) was added into the microtube with well mixing. The mixture was incubated at room temperature for 10 minutes and then centrifuged at 12000 rpm at 4° C. for 10 minutes. The supernatant was then removed. One ml of 70% ethanol containing DEPC.H2O was used to wash the remaining sediment. The sediment was centrifuged at 7500 rpm at 4° C. for 5 minutes. The supernatant was removed. The sediment was dried by vacuum suction. The dried samples were dissolved in about 0.01 to 0.02 ml of DEPC.H2O to obtain the experimental group RNA and control group RNA. Both groups were stored at −80° C.
(§2) The OD value of RNA samples in both groups obtained from the above Experiment I were measured at a wavelength of 260 nm (RNA: OD260=1 for a 40 μg/mL solution). Each RNA sample (2 μl) was added with RNA-free water until the volume of the sample reached 10 μl. Two μl oligo (dT) (100 μg/ml) was added into each sample, and the samples were incubated at 65° C. for 5 minutes. Then, the samples were immediately placed on ice and spun down. Next, 6.5 μl of a reaction solution [4 μl of 5× buffer+1 μl of 0.1 M DTT+1 μl of RNase out+0.5 μl of SSIII (Invitrogen)] was added into each of the samples, and the samples were incubated at 50° C. for about 30 to 60 minutes and at 75° C. for 15 minutes to obtain the experimental group cDNA and control group cDNA. Both groups were stored at −80° C.
(§3) This experiment was used to detect the expression levels of ES cell-related genes, i.e., Oct4 and Sox2, etc. First, 4 μl of the experimental group cDNA or control group cDNA was added into each well of a 96-well micro-reaction plate, and mixed with 6 μl of a reaction solution [0.5 μl of 6 μM forward primer+0.5 μl of 6 μM reverse primer+5 μl of SYBR Green PCR Master mix (Roche)], wherein the SYBR Green PCR Master mix included the reagents needed for Q-PCR, such as dNTPs, MgCl, Taq DNA polymerase and 2×SYBR® Green I solution. […] The cycle threshold (CT) values were measured. […]

IL5 = test: Real-time PCR, cytokine gene IL5 in ES cells; details: for IL5 mRNA expression level: ES cells, control group = 100%
Procedure: as §1, §2, §3

[1] = BP10 medium (about 10 μg BP/ml)
[2] = BP-containing ES cell medium, result in words
[3] = LIF-containing medium (LIF 4 ng/ml)

Row | Compound | AP-positive clones (ES cells; BP5 medium (about 5 μg BP/ml), ES cells, 72 hours, control group = 100%) | AP-positive clones (ES cells; BP10 medium (about 10 μg BP/ml), ES cells, 72 hours, control group = 100%) | AP-positive clones (ES cells; BP20 medium (about 20 μg BP/ml), ES cells, 72 hours, control group = 100%) | AP-positive clones (ES cells; BP40 medium (about 40 μg BP/ml), ES cells, 72 hours, control group = 100%) | AP-positive clones (ES cells; BP-containing ES cell medium vs control group (without BP), result in words) | EGF mRNA expression level (EGF; BP5 medium (about 5 μg BP/ml)) | EGF mRNA expression level (EGF; [1]) | mRNA expression level of EGF (EGF; [2]) | IL5 mRNA expression level (IL5; BP5 medium (about 5 μg BP/ml)) | IL5 mRNA expression level (IL5; [1]) | mRNA expression level of IL-5 (IL5; [2]) | AP-positive clones (ES cells; LIF-containing medium (LIF 4 ng/ml, without BP), ES cells, 72 hours, control group = 100%) | EGF mRNA expression level (EGF; [3]) | IL5 mRNA expression level (IL5; [3])
1 | CCCC=C1OC(=O)c2ccccc21 [BP, n-butylidenephthalide] | 91% | 116% | 116% | 117% | more AP-positive clones | 110% | 204% | significantly up-regulated | 65% | 175% | significantly up-regulated | – | – | –
2 | LIF: multifunctional cell factor used to maintain pluripotency of stem cells; LIF-containing medium (4 ng/ml, without BP) as comparison | – | – | – | – | – | – | – | – | – | – | – | 110% | 145% | 35%
